Source: patent publication US11882828B2, “Mosquito vector control compositions, methods and products utilizing same” (priority 2015, dated 2024)

How the values were obtained:
Test in all cases: Example B5: bottle based cross resistance study (CDC bottle assay)
Type in all cases: in vivo
An. Gambiae Kisumu sus = conditions: Kisumu sus
Protocol: (§1) Based on the “CDC bottle assay” (described at http://www.cdc.gov/malaria/resources/pdf/fsp/ir_manual/ir_cdc_bioassay_en.pdf) 1 ml of ethanol containing a test compound at a defined concentration was added to a 250 ml glass bottle and the bottles were placed on a rolling table to coat the inner surfaces as the solvent evaporated. Once dry, twenty five non-blood fed adult female mosquitoes of the appropriate species and strains (each three day old) were aspirated from the stock culture and gently blown into the exposure bottles. The lid of the bottle was replaced and the bottle placed upright out of direct sun light under standard culture conditions, nominally 28C and 60-80% relative humidity.
(§2) A stopwatch was started, and the assessment of the knock-down were made after 15 minutes and 60 minutes. A mosquito was said to be knocked down if it was unable to stand, following the CDC definition. The bottles were replaced in an upright position when not being assessed.
(§3) After one hour the mosquitoes were carefully removed from the bottle with an aspirator and placed in a recovery cup. The mosquitoes were supplied with a 10% sucrose solution on a cotton wool bung, and stored under culture conditions. Assessments of the mortality were made after 24 hours.
(§4) Each treatment was replicated a minimum of four times, with the mean knockdown or mortality recorded. In each study, a set of bottles was infested with a known insecticide susceptible strain of mosquitoes from the same genera as the resistant strains.

An. Gambiae Tiassalé = system: An. Gambiae Tiassalé
Protocol: as §1, §2, §3, §4

An. stephensi = system: An. stephensi
Protocol: as §1, §2, §3, §4

FUMOZ = conditions: Anopheles funestus, 24 h, Table B5c; 25 ppm; after 24 hours; FUMOZ
Protocol: as §1, §2, §3, §4

VK7 = conditions: Anopheles coluzzii, 24 h, Table B5c, after 24 hours
Protocol: as §1, §2, §3, §4

CO/C=C(/C(=O)OC)c1ccccc1Oc1nc(C(C)(C)C)ns1 [Compound 7, Methyl (E)-2-[2-[(3-tert-butyl-1,2,4-thiadiazol-5-yl)oxy]phenyl]-3-methoxy-prop-2-enoate]
Knockdown (%) at 15 mins (An. Gambiae Kisumu sus; 20 ppm, bottle): 100%
Knockdown (%) at 60 mins (An. Gambiae Kisumu sus; 20 ppm, bottle): 100%
mortality at 20 ppm (An. Gambiae Kisumu sus; Anopheles gambiae, 20 ppm, bottle, one hour exposure, after 24 hours): 99%
mortality at 25 ppm (An. Gambiae Kisumu sus; Anopheles gambiae, 24 h, Table B5c, 25 ppm, after 24 hours): 97%
Knockdown (%) at 15 mins (An. Gambiae Tiassalé; 20 ppm, bottle, Tiassalé): 70%
Knockdown (%) at 60 mins (An. Gambiae Tiassalé; 20 ppm, bottle, Tiassalé): 97%
mortality at 20 ppm (An. Gambiae Tiassalé; Anopheles gambiae): 95%
Knockdown (%) at 15 mins (An. stephensi; 20 ppm, bottle, An. stephensi): 37%
Knockdown (%) at 60 mins (An. stephensi; 20 ppm, bottle, An. stephensi): 100%
mortality at 20 ppm (An. stephensi; Anopheles stephensi): 100%
mortality at 25 ppm (FUMOZ): 20%
mortality at 25 ppm (VK7): 19%
